pIC50: −log10 of the molar value.
Target: Escherichia coli DNA gyrase A/B tetramer (Escherichia coli (strain K12), UniProt P0AES4+P0AES6)
Experiment: DNA gyrase supercoiling activity fluorescence polarisation assay
Assay type: biochemical
Conditions: 5 nM enzyme, relaxed plasmid, 0.3 mM ATP, ambient temperature; read-out: E. coli DNA gyrase supercoiling IC50
Procedure, shortened: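 Supercoiling reactions quenched with 40 nM 5′-BODIPY-FL triplex-forming oligonucleotide probe in pH 3.5 NaCl/sodium acetate buffer; after 60 min, fluorescence anisotropy read (ex 485/em 535 nm). IC50 by nonlinear regression, normalised to 0.8% DMSO (100% activity) and 5 μM ciprofloxacin (0% activity).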

Row | SMILES | pIC50
1 | C[C@@H]1CN2c3c(cc4c(-n5cc(Cl)cn5)noc4c3F)CC3(C(=O)NC(=O)NC3=O)[C@H]2[C@H](C)O1 (relative stereo) [Example 61, (2R,4S,4aS)-rel-8-(4-chloro-1H-pyrazol-1-yl)-11-fluoro-2,4-dimethyl-1,2,4,4a-tetrahydro-2′H,6H-spiro[1,4-oxazino[4,3-a][1,2]oxazolo[4,5-g]quinoline-5,5′-pyrimidine]-2′,4′,6′(1′H,3′H)-trione] | 5.03
2 | C[C@@H]1CN2c3c(cc4c(C(=O)N5CCC(F)(F)C5)noc4c3F)CC3(C(=O)NC(=O)NC3=O)[C@H]2[C@H](C)O1 (racemic) [Example 158, (2R,4 S,4 aS)-rel-8-(3,3-difluoropyrrolidine-1-carbonyl)-11-fluoro-2,4-dimethyl-2,4,4a,6-tetrahydro-1H,1′H-spiro[isoxazolo[4,5-g][1,4]oxazino[4,3-a]quinoline-5,5′-pyrimidine]-2′,4′,6′(3′H)-trione] | 5.85
3 | C[C@H]1CN2c3c(cc4c(C(F)F)noc4c3F)CC3(C(=O)NC(=O)NC3=O)[C@@H]2[C@@H](C)O1 [Example 93(a), (2S,4R,4aR)-8-(difluoromethyl)-11-fluoro-2,4-dimethyl-2,4,4a,6-tetrahydro-1H,1′H-spiro[isoxazolo[4,5-g][1,4]oxazino[4,3-a]quinoline-5,5′-pyrimidine]-2′,4′,6′(3′H)-trione] | 4.25
4 | C[C@@H]1CN2c3c(cc4c(C(=O)N5CCN(C)C(=O)C5)noc4c3F)CC3(C(=O)NC(=O)NC3=O)[C@H]2[C@H](C)O1 (relative stereo) [Example 141, (2R,4S,4aS)-rel-11-fluoro-2,4-dimethyl-8-(4-methyl-3-oxopiperazine-1-carbonyl)-2,4,4a,6-tetrahydro-1H,1′H-spiro[isoxazolo[4,5-g][1,4]oxazino[4,3-a]quinoline-5,5′-pyrimidine]-2′,4′,6′(3′H)-trione] | 5.31
5 | CC1O[C@H](C)CN2c3c(cc4c(-c5cnccn5)noc4c3F)CC3(C(=O)NC(=O)NC3=O)[C@H]12 (stereo in doubt) [Example 165(a), (2R,4S,4aR)-11-fluoro-2,4-dimethyl-8-(pyrazin-2-yl)-2,4,4a,6-tetrahydro-1H,1′H-spiro[isoxazolo[4,5-g][1,4]oxazino[4,3-a]quinoline-5,5′-pyrimidine]-2′,4′,6′(3′H)-trione] | 5.11
6 | C[C@@H]1CN2c3c(cc4c(NCc5cnn(C)c5)noc4c3F)CC3(C(=O)NC(=O)NC3=O)[C@H]2[C@H](C)O1 (relative stereo) [Example 12, (2R,4S,4aS)-rel-11-fluoro-2,4-dimethyl-8-{[(1-methyl-1H-pyrazol-4-yl)methyl]amino}-1,2,4,4a-tetrahydro-2′H,6H-spiro[1,4-oxazino[4,3-a][1,2]oxazolo[4,5-g]quinoline-5,5′-pyrimidine]-2′,4′,6′(1′H,3′H)-trione] | 5.92
7 | COc1nccc(-c2noc3c(F)c4c(cc23)CC2(C(=O)NC(=O)NC2=O)[C@H]2[C@H](C)O[C@H](C)CN42)n1 [Example 172, (2R,4S,4aS)-11-fluoro-8-(2-methoxypyrimidin-4-yl)-2,4-dimethyl-2,4,4a,6-tetrahydro-1H,1′H-spiro[isoxazolo[4,5-g][1,4]oxazino[4,3-a]quinoline-5,5′-pyrimidine]-2′,4′,6′(3′H)-trione] | 6.05
8 | C[C@@H]1CN2c3c(cc4c(NCc5c[nH]cn5)noc4c3F)CC3(C(=O)NC(=O)NC3=O)[C@H]2[C@H](C)O1 (relative stereo) [Example 11, (2R,4S,4aS)-rel-11-fluoro-8-[(1H-imidazol-4-ylmethyl)amino]-2,4-dimethyl-1,2,4,4a-tetrahydro-2′H,6H-spiro[1,4-oxazino[4,3-a][1,2]oxazolo[4,5-g]quinoline-5,5′-pyrimidine]-2′,4′,6′(1′H,3′H)-trione] | 6.10
9 | C[C@@H]1CN2c3c(cc4c(N5CCN(C(=O)OC(C)(C)C)CC5)noc4c3F)CC3(C(=O)NC(=O)NC3=O)[C@H]2[C@H](C)O1 (relative stereo) [Example 20, tert-butyl 4-[(2R,4S,4aS)-rel-11-fluoro-2,4-dimethyl-2′,4′,6′-trioxo-1,1′,2,3′,4,4′,4a,6′-octahydro-2′H,6H-spiro[isoxazolo[4,5-g][1,4]oxazino[4,3-a]quinoline-5,5′-pyrimidin]-8-yl]piperazine-1-carboxylate] | 4.70
10 | C[C@@H]1CN2c3c(cc4c(C(=O)N(C)C)noc4c3F)CC3(C(=O)NC(=O)NC3=O)[C@H]2[C@H](C)O1 (relative stereo) [Example 136, (2R,4S,4aS)-rel-11-fluoro-N,N,2,4-tetramethyl-2′,4′,6′-trioxo-2,2′,3′,4,4a,4′,6,6′-octahydro-1H,1′H-spiro[isoxazolo[4,5-g][1,4]oxazino[4,3-a]quinoline-5,5′-pyrimidine]-8-carboxamide] | 5.55
11 | C[C@@H]1CN2c3c(cc4c(C(=O)N5CCC(F)(F)CC5)noc4c3F)CC3(C(=O)NC(=O)NC3=O)[C@H]2[C@H](C)O1 (relative stereo) [Example 157, (2R,4S,4aS)-rel-8-(4,4-difluoropiperidine-1-carbonyl)-11-fluoro-2,4-dimethyl-2,4,4a,6-tetrahydro-1H,1′H-spiro[isoxazolo[4,5-g][1,4]oxazino[4,3-a]quinoline-5,5′-pyrimidine]-2′,4′,6′(3′H)-trione] | 5.19
12 | C[C@@H]1CN2c3c(cc4c(C(=O)NCC(F)F)noc4c3F)CC3(C(=O)NC(=O)NC3=O)[C@H]2[C@H](C)O1 [Example 94(b), (2R,4S,4aS)—N-(2,2-difluoroethyl)-11-fluoro-2,4-dimethyl-2′,4′,6′-trioxo-2,2′,3′,4,4a,4′,6,6′-octahydro-1H,1′H-spiro[isoxazolo[4,5-g][1,4]oxazino[4,3-a]quinoline-5,5′-pyrimidine]-8-carboxamide] | 6.10
13 | C[C@@H]1CN2c3c(cc4c(C(=O)NCc5ccnn5C)noc4c3F)CC3(C(=O)NC(=O)NC3=O)[C@H]2[C@H](C)O1 (racemic) [Example 162, (2R,4 S,4 aS)-rel-11-fluoro-2,4-dimethyl-N-((1-methyl-1H-pyrazol-5-yl)methyl)-2′,4′,6′-trioxo-2,2′,3′,4,4a,4′,6,6′-octahydro-1H,1′H-spiro[isoxazolo[4,5-g][1,4]oxazino[4,3-a]quinoline-5,5′-pyrimidine]-8-carboxamide] | 5.68
14 | C[C@@H]1CN2c3c(cc4c(C(=O)NCc5ccncc5)noc4c3F)CC3(C(=O)NC(=O)NC3=O)[C@H]2[C@H](C)O1 (relative stereo) [Example 155, (2R,4S,4aS)-rel-11-fluoro-2,4-dimethyl-2′,4′,6′-trioxo-N-(pyridin-4-ylmethyl)-2,2′,3′,4,4a,4′,6,6′-octahydro-1H,1′H-spiro[isoxazolo[4,5-g][1,4]oxazino[4,3-a]quinoline-5,5′-pyrimidine]-8-carboxamide] | 5.92
15 | C[C@@H]1CN2c3c(cc4c(-c5nc(C(=O)N(C)C)cs5)noc4c3F)CC3(C(=O)NC(=O)NC3=O)[C@H]2[C@H](C)O1 (racemic) [Example 86, 2-[(2R,4S,4 aS)-rel-11-fluoro-2,4-dimethyl-2′,4′,6′-trioxo-1,1′,2,3′,4,4′,4a,6′-octahydro-2′H,6H-spiro[1,4-oxazino[4,3-a][1,2]oxazolo[4,5-g]quinoline-5,5′-pyrimidin]-8-yl]-N,N-dimethyl-1,3-thiazole-4-carboxamide] | 5.30
16 | C[C@@H]1CN2c3c(cc4c(-c5cccnc5)noc4c3Cl)CC3(C(=O)NC(=O)NC3=O)[C@H]2[C@H](C)O1 (relative stereo) [Example 47, (2R,4S,4aS)-rel-11-chloro-2,4-dimethyl-8-(pyridin-3-yl)-1,2,4,4a-tetrahydro-2′H,6H-spiro[1,4-oxazino[4,3-a][1,2]oxazolo[4,5-g]quinoline-5,5′-pyrimidine]-2′,4′,6′(1′H,3′H)-trione] | 6.52
17 | Cc1csc(-c2noc3c(Cl)c4c(nc23)CC2(C(=O)NC(=O)NC2=O)[C@H]2[C@H](C)O[C@H](C)CN42)n1 (relative stereo) [Example 113, (2R,4S,4aS)-rel-11-Chloro-2,4-dimethyl-8-(4-methylthiazol-2-yl)-2,4,4a,6-tetrahydro-1H,1′H-spiro[isoxazolo[4,5-g][1,4]oxazino[4,3-a][1,5]naphthyridine-5,5′-pyrimidine]-2′,4′,6′(3′H)-trione] | 5.60
18 | C[C@@H]1CN2c3c(cc4c(C(=O)NCc5ccn(C)n5)noc4c3F)CC3(C(=O)NC(=O)NC3=O)[C@H]2[C@H](C)O1 (relative stereo) [Example 161, (2R,4S,4aS)-rel-11-fluoro-2,4-dimethyl-N-((1-methyl-1H-pyrazol-3-yl)methyl)-2′,4′,6′-trioxo-2,2′,3′,4,4a,4′,6,6′-octahydro-1H,1′H-spiro[isoxazolo[4,5-g][1,4]oxazino[4,3-a]quinoline-5,5′-pyrimidine]-8-carboxamide] | 5.89
19 | C[C@@H]1CN2c3c(cc4c(-n5nccn5)noc4c3F)CC3(C(=O)NC(=O)NC3=O)[C@H]2[C@H](C)O1 (racemic) [Example 56, (2R,4S,4 aS)-rel-11-fluoro-2,4-dimethyl-8-(2H-1,2,3-triazol-2-yl)-1,2,4,4a-tetrahydro-2′H,6H-spiro[1,4-oxazino[4,3-a][1,2]oxazolo[4,5-g]quinoline-5,5′-pyrimidine]-2′,4′,6′(1′H,3′H)-trione] | 6.15
20 | C[C@@H]1CN2c3c(cc4c(-c5ccnc(C#N)n5)noc4c3F)CC3(C(=O)NC(=O)NC3=O)[C@H]2[C@H](C)O1 [Example 173, 4-((2R,4S,4aS)-11-fluoro-2,4-dimethyl-2′,4′,6′-trioxo-2,2′,3′,4,4a,4′,6,6′-octahydro-1H,1′H-spiro[isoxazolo[4,5-g][1,4]oxazino[4,3-a]quinoline-5,5′-pyrimidine]-8-yl)pyrimidine-2-carbonitrile] | 7.00
21 | C[C@@H]1CN2c3c(cc4c(C5CC5)noc4c3F)CC3(C(=O)NC(=O)NC3=O)[C@H]2[C@H](C)O1 (relative stereo) [Example 4, (2R,4S,4aS)-rel-8-cyclopropyl-11-fluoro-2,4-dimethyl-1,2,4,4a-tetrahydro-2′H,6H-spiro[isoxazolo[4,5-g][1,4]oxazino[4,3-a]quinoline-5,5′-pyrimidine]-2′,4′,6′(1′H,3′H)-trione] | 6.52
